Calls of active or inactive are those of the source.
Assays:
Estrogen receptor beta [1] = biological target: T1, Estrogen receptor beta (Homo sapiens, UniProt Q92731); assay: ERβ–SRC-3 coactivator interaction inhibitors, confirmation, orthogonal assay, biochemical, ELISA, streptavidin-HRP readout (AID 1060)
Estrogen receptor = biological target: T2, Estrogen receptor (Homo sapiens, UniProt P03372);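 also: potency for inhibiting coactivator peptide recruitment to the receptor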
T2 sequence (P03372 whole entry): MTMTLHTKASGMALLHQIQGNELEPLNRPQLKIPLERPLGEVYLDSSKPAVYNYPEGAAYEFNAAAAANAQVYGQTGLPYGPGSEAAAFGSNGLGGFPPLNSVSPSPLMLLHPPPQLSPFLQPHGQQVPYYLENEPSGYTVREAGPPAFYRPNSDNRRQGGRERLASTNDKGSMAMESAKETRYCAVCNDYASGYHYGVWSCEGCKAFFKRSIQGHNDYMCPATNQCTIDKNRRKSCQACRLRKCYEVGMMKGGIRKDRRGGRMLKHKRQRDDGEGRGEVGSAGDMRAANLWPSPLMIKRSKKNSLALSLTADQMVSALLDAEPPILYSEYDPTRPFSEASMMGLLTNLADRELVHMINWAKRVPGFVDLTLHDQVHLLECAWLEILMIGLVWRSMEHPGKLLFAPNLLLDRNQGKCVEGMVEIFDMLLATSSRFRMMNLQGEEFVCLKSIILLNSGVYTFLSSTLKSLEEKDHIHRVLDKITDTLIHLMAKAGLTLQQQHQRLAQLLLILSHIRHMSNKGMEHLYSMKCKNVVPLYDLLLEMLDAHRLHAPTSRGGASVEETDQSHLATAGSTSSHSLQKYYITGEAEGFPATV

Estrogen receptor beta [2] = biological target: T1, Estrogen receptor beta
[3] = biological target: T3, Eukaryotic translation initiation factor 2-alpha kinase 3 (Homo sapiens, UniProt Q9NZJ5); assay: Counterscreen assay for PERK inhibitors: Dose response cell-based high throughput screening assay to measure inhibition of PERK at 6 hours. [Related pubchem assays: 1522, 1416 ]; assay type: functional
T3 sequence (Q9NZJ5 whole entry): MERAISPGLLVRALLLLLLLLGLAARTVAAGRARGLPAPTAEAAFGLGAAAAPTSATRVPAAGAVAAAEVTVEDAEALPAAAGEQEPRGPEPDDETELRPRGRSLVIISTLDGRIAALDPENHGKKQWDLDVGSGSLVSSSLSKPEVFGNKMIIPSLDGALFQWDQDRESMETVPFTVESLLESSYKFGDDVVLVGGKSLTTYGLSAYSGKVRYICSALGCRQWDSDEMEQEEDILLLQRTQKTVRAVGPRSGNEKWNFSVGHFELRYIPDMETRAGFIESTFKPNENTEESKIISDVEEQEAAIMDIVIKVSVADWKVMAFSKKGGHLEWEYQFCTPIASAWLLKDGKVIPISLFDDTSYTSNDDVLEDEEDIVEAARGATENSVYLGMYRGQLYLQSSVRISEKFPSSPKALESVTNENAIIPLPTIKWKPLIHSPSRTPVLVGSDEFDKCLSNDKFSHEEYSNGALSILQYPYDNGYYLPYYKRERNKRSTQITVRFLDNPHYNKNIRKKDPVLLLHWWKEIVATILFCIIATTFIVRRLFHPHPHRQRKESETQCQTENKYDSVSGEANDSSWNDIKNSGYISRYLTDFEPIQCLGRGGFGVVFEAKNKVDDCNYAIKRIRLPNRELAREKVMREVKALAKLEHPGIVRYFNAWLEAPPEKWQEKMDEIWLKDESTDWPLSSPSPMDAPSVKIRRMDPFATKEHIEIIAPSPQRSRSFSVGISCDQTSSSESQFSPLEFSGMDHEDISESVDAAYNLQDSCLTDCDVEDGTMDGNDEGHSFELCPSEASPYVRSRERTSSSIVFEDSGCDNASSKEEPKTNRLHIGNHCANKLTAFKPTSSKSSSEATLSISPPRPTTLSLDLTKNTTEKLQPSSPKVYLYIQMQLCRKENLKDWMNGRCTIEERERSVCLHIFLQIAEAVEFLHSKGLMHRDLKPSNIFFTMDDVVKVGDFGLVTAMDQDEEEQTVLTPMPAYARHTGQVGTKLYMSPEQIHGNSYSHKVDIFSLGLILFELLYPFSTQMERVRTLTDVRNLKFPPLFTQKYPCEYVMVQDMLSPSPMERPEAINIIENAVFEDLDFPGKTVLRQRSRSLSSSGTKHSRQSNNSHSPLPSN

[4] = biological target: T3, Eukaryotic translation initiation factor 2-alpha kinase 3; assay: Dose response cell-based high-throughput screening assay to measure PERK inhibition. [Related pubchem assays: 1416 ]; assay type: functional
Bcl-2-like protein 10 = Bcl-2-like protein 10 (Homo sapiens, UniProt Q9HD36); assay: displacers of TR3 peptide from Bcl-B, primary screen, selectivity assay for Bfl-1 inhibitor project, biochemical, fluorescence polarization, FITC-TR3 peptide (AID 748);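 also: fluorescence polarization from a fluorescein-labelled TR3 peptide binding purified Bcl-B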
[5] = polyadenylation inhibitors in yeast reporter, dose response, luminescence, S. cerevisiae SKY197-pL101 (AID 2525); assay type: functional, cell-based
[6] = Luminescence Cell-Based Dose Confirmation HTS to Identify Inhibitors of Polyadenylation.; assay type: functional
[7] = biological target: T4, High affinity choline transporter 1 (Homo sapiens, UniProt Q9GZV3); assay: CHT inhibitors, dose response, cell-based, 5-point CRC, membrane potential dye (AID 504840); assay type: functional
T4 sequence (Q9GZV3 whole entry): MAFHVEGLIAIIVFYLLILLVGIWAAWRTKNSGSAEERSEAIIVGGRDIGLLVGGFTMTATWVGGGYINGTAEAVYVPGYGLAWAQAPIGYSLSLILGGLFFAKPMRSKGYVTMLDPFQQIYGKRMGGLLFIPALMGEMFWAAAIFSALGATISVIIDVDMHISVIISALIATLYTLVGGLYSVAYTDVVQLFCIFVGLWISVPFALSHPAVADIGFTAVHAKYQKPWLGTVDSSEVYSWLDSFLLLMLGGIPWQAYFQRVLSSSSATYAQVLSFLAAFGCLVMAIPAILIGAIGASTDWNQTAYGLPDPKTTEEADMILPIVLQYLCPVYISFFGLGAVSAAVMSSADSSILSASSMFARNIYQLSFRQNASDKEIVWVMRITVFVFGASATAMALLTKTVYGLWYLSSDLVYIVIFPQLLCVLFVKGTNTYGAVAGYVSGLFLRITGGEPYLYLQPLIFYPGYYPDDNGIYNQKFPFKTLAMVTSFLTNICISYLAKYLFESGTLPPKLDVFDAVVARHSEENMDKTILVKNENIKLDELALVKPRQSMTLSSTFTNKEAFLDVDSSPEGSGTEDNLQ

[8] = biological target: T4, High affinity choline transporter 1; assay: CHT inhibitors, dose response, cell-based, 10-point CRC, membrane potential dye (AID 588401); assay type: functional;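 also: membrane potential dye fluorescence of choline-evoked depolarization via CHT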
[9] = biological target: Transitional endoplasmic reticulum ATPase (Homo sapiens, UniProt P55072); assay: p97 ATPase inhibitors, dose response, biochemical (AID 1534)
[10] = biological target: Transitional endoplasmic reticulum ATPase (Homo sapiens, UniProt P55072, C522A); assay: C522A mutant p97 ATPase inhibitors, dose response, counter-screen for p97 inhibitor project, biochemical, luminescence (AID 1544)
[11] = HEp-2 cell cytotoxicity, dose response, cytotoxicity control for RSV inhibitor project, HTS (AID 2410); assay type: functional; conditions: human respiratory syncytial virus
Hexokinase HKDC1 = biological target: T5, Hexokinase HKDC1 (Homo sapiens, UniProt Q2TB90); assay: HKDC1 hexokinase inhibitors, dose response, biochemical, W721R variant (AID 504729); assay type: functional
T5 sequence (Q2TB90 whole entry): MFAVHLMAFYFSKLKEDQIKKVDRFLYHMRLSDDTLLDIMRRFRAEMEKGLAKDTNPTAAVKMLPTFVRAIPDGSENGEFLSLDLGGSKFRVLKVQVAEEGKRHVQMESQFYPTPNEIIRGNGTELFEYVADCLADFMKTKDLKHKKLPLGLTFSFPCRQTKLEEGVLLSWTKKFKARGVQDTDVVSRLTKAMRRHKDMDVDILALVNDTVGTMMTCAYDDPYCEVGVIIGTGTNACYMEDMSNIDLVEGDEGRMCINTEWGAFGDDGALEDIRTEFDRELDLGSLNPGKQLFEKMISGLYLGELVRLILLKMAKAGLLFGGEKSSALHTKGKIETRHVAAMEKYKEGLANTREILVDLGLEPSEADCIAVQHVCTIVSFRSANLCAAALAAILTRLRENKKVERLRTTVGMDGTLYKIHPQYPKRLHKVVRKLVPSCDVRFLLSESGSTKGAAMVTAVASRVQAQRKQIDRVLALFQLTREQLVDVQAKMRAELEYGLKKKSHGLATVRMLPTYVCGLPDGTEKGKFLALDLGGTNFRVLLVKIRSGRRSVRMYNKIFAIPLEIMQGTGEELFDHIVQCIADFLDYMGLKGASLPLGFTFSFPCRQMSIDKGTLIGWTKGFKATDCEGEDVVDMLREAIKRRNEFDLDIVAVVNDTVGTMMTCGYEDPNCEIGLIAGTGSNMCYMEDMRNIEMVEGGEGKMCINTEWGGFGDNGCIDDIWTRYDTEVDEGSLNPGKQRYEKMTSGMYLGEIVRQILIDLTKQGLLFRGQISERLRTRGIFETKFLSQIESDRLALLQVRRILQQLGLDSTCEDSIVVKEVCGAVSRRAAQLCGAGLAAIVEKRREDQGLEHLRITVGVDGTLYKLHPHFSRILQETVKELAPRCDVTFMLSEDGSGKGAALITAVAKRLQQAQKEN

[12] = A Cell Based Secondary Assay To Explore Cytotoxicity of Compounds that Sensitize Mycobacterium Tuberculosis to Beta-Lactam Antibiotics.; assay type: functional
[13] = biological target: DNA dC->dU-editing enzyme APOBEC-3A (Homo sapiens, UniProt P31941); assay: APOBEC3A DNA deaminase inhibitors, dose response, biochemical (AID 504722); assay type: functional
[14] = biological target: DNA dC->dU-editing enzyme APOBEC-3G (Homo sapiens, UniProt Q9HC16); assay: Dose Response confirmation of small molecule APOBEC3G DNA Deaminase Inhibitors via a fluorescence-based single-stranded DNA deaminase assay. [Related pubchem assays (depositor defined):AID493012, AID493028]; assay type: functional
DNA dC->dU-editing enzyme APOBEC-3G, sequence (Q9HC16 whole entry): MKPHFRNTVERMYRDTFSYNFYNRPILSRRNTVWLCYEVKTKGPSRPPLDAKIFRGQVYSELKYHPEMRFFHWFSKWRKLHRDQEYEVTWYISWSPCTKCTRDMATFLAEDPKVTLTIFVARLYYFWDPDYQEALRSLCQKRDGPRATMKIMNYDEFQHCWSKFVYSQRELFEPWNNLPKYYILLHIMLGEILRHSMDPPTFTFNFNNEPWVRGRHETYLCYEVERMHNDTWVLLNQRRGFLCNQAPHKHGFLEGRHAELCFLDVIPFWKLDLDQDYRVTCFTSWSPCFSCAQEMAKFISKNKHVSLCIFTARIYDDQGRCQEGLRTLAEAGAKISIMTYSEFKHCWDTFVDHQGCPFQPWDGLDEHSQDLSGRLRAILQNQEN

T1 sequence (Q92731 whole entry): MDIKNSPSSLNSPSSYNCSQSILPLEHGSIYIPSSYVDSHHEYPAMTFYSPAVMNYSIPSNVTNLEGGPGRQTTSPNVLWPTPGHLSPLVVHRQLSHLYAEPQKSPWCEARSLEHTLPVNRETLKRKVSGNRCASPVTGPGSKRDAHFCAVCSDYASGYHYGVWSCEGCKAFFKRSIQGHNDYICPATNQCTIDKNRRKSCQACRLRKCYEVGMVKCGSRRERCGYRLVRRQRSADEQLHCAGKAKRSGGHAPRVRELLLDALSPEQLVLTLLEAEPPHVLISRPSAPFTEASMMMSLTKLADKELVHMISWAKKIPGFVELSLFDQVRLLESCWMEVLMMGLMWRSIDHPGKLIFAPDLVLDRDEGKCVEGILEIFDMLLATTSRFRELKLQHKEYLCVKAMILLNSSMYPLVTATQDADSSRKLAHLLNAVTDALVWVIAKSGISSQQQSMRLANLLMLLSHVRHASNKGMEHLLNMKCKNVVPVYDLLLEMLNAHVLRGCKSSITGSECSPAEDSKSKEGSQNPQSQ
Transitional endoplasmic reticulum ATPase (Homo sapiens, UniProt P55072, C522A), sequence (P55072 2-806 C522A limits assumed): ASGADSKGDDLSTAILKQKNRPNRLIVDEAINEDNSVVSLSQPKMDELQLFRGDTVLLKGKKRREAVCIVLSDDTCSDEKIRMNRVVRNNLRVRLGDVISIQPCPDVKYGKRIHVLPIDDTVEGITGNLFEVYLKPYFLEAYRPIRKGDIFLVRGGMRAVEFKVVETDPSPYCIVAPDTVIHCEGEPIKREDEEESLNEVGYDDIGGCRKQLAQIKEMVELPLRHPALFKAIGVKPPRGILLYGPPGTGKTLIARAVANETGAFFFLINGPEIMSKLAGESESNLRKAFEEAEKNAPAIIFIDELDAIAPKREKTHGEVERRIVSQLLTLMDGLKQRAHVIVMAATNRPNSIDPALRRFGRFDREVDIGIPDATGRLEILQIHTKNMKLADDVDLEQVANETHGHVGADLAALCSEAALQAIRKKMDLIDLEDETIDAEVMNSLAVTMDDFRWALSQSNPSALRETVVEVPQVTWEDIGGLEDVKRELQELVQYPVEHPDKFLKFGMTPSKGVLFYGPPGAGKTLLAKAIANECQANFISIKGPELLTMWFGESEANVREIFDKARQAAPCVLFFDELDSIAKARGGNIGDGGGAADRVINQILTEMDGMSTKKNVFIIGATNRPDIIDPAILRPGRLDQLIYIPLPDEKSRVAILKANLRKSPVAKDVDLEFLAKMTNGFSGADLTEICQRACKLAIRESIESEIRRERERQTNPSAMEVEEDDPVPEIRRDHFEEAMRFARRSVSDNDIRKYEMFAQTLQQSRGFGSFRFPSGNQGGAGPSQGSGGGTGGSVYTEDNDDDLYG
DNA dC->dU-editing enzyme APOBEC-3A, sequence (P31941 whole entry): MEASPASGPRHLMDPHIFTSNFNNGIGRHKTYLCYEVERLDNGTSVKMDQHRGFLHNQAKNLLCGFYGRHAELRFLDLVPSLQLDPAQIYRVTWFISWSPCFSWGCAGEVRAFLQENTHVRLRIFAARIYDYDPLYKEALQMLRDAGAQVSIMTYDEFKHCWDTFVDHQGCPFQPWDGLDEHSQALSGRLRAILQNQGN
Bcl-2-like protein 10, sequence (Q9HD36 whole entry): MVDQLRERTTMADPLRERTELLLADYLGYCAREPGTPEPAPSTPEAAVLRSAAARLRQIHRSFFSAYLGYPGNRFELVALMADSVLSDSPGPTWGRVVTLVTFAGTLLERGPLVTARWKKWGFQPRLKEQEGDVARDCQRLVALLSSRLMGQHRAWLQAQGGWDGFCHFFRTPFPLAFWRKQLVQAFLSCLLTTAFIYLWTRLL
Transitional endoplasmic reticulum ATPase (Homo sapiens, UniProt P55072), sequence (P55072 whole entry): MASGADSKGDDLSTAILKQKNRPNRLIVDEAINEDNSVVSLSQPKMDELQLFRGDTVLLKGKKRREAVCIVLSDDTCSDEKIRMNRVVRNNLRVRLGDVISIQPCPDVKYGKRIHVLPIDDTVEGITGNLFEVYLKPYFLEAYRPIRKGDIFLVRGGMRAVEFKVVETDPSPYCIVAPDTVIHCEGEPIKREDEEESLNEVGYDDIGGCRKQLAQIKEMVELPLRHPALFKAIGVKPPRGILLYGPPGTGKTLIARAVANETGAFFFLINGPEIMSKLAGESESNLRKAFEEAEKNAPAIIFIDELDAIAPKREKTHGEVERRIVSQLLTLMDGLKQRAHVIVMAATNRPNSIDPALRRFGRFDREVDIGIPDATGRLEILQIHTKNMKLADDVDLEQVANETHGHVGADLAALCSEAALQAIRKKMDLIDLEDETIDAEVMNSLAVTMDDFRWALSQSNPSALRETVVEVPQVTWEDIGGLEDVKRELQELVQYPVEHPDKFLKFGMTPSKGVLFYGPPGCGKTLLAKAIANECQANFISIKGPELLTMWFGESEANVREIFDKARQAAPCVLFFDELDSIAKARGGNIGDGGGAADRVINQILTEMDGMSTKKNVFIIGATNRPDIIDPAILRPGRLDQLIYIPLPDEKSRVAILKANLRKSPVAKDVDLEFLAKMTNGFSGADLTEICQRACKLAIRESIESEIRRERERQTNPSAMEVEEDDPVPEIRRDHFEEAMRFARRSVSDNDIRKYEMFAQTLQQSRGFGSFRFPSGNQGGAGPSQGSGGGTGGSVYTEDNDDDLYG

For O=C(CSc1nnc(-c2ccc(OC(F)F)cc2)o1)NC(=O)NCc1ccco1, the IC50 (Estrogen receptor beta [1]) was > 109 µM (not active), the IC50 (Estrogen receptor) was 11.6 µM (active) and the IC50 (Estrogen receptor beta [2]) was 15.9 µM (active).
In the case of COc1ccc(-c2csc(NC(=O)CSc3nc(C)cs3)n2)cc1, the EC50 [3] is reported as > 55.7 µM (not active) and the EC50 [4] is reported as > 55.7 µM (not active).
In the case of COc1ccc(NC(=O)C2CCN(c3nc(C)nc4c3CCC4)CC2)cc1, the IC50 (Bcl-2-like protein 10) is reported as 33.8 µM (active).
With Cc1ccc(-c2nn3c(C)nnc3s2)cc1NC(=O)CSc1ccc(Cl)cc1 the EC50 [5] was 3.08 µM (active) and the EC50 [6] was 24.7 µM (active).
With CC(=O)c1cc2c(cc1N)OCO2 the EC50 [3] was > 55.7 µM (not active) and the EC50 [4] was > 55.7 µM (not active).
For CC(=O)Oc1cc2c3c(c1)/C(=C1/SC(=S)NC1=O)C(=O)N3C(C)(C)C=C2C, the IC50 (cells) was 12.5 µM (active), the IC50 [7] was 1.21 µM (active) and the IC50 [8] was 6.48 µM (active). For the same compound, the IC50 [9] was > 50 µM (not active), the IC50 [10] was > 50 µM (not active) and the CC50 [11] was 14.3 µM (active).
With CCc1nc2sc3c(O)ncnc3c2c2c1CSC(C)(C)C2 the IC50 (Hexokinase HKDC1) was 26 µM (inactive).
For Cc1ccc(Nc2c(-c3ccc(C)o3)nc3ncccn23)cc1, the EC50 [5] was > 500 µM (not active) and the EC50 [6] was 11.6 µM (active).
In the case of CCN(CC)c1ccc(NC(=O)c2cc(Cl)ccc2OC)cc1, the CC50 [12] is reported as > 40 µM (active).
With Cc1cccc(-n2nc([N+](=O)[O-])c(NC3CCN(Cc4ccccc4)CC3)[n+]2[O-])c1 the CC50 [12] was > 40 µM (active).
For COc1cccc(/C=N/n2c(S)nnc2-c2cc(C)[nH]n2)c1, the IC50 [13] was > 100 µM (inactive) and the IC50 [14] was 5.19 µM (active).

Source: ChEMBL document CHEMBL1201862, “PubChem BioAssay data set” (2004)
